Reference: patent US20170355705A1 (GlaxoSmithKline Intellectual Property (No.2) Limited, priority 2014, published 2017)

Target: T1, SIRT1 (Homo sapiens, UniProt Q96EB6)
T1 sequence (Q96EB6 1-747): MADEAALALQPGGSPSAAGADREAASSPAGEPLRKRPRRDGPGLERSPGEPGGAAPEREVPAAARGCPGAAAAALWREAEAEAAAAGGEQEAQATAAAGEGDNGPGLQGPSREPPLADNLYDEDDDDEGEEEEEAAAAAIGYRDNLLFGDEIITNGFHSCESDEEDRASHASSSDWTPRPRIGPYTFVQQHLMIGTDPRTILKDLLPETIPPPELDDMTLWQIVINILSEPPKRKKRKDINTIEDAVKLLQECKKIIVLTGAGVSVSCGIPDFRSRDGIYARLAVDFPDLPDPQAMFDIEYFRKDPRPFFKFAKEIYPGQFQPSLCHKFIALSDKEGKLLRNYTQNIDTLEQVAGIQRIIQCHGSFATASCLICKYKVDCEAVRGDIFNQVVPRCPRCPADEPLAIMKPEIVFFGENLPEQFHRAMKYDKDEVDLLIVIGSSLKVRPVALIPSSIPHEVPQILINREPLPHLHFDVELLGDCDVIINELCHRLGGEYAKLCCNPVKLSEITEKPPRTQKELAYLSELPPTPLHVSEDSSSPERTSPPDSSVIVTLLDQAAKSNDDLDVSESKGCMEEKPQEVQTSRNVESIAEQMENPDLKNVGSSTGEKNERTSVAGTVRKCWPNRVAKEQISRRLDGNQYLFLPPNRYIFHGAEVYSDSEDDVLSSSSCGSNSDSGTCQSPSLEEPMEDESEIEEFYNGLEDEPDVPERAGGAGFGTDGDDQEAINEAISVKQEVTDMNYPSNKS
Experiment: Trp mass spectrometry assay of SIRT1 activity (EC1.5, percent maximum activation)
Assay type: biochemical
Conditions: Trp mass spectrometry assay; for TRP Activity (EC1.5): EC1.5 = concentration giving 150% activation of SIRT1; for TRP MAX RESP (percent maximum fold activation): percent maximum activation of SIRT1
Outline: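 N-terminal His-tagged human SIRT1, expressed in BL21(DE3) and purified, was incubated 25 min with an acetylated Trp peptide and NAD plus test compound at varying concentrations, then quenched with formic acid. OAADPR or deacetylated peptide was quantified by mass spectrometry versus compound-free control; EC1.5 is the concentration giving 50% activity increase, with percent maximum activation.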

SMILES: Cl.O=C(Nc1cc(OC[C@@H](O)CO)ccn1)N1c2nc(-c3cccc(C(F)(F)F)c3)c(Cl)cc2N2CC[C@H]1C2 [Example 64, (4S)-8-chloro-N-(4-((S)-2,3-dihydroxypropoxy)pyridin-2-yl)-7-(3-(trifluoromethyl)phenyl)-3,4-dihydro-1,4-methanopyrido[2,3-b][1,4]diazepine-5(2H)-carboxamide, Hydrochloride]
- TRP Activity (EC1.5): B (EC1.5 1-25 μM)
- TRP MAX RESP (percent maximum fold activation): A (Fold activation ≧150%)

SMILES: O=C(Nc1cncc(OC[C@H](O)CO)n1)N1c2nc(-c3cccc(C(F)(F)F)c3)c(Cl)cc2N2CC[C@H]1C2 [Example 65, (4S)-8-chloro-N-(6-((R)-2,3-dihydroxypropoxy)pyrazin-2-yl)-7-(3-(trifluoromethyl)phenyl)-3,4-dihydro-1,4-methanopyrido[2,3-b][1,4]diazepine-5(2H)-carboxamide]
- TRP Activity (EC1.5): A (EC1.5<1 μM)
- TRP MAX RESP (percent maximum fold activation): A (Fold activation ≧150%)

SMILES: O=C(Nc1cnc(OC[C@H](O)CO)nc1)N1c2nc(-c3cccc(C(F)(F)F)c3)c(Cl)cc2N2CC[C@H]1C2 [Example 66, (4S)-8-chloro-N-(2-((R)-2,3-dihydroxypropoxy)pyrimidin-5-yl)-7-(3-(trifluoromethyl)phenyl)-3,4-dihydro-1,4-methanopyrido[2,3-b][1,4]diazepine-5(2H)-carboxamide]
- TRP Activity (EC1.5): B (EC1.5 1-25 μM)
- TRP MAX RESP (percent maximum fold activation): A (Fold activation ≧150%)

SMILES: O=C(Nc1cccc(OCCCO)n1)N1c2nc(-c3cccc(C(F)(F)F)c3)c(Cl)cc2N2CC[C@H]1C2 [Example 67, (4S)-8-chloro-N-(6-(3-hydroxypropoxy)pyridin-2-yl)-7-(3-(trifluoromethyl)phenyl)-3,4-dihydro-1,4-methanopyrido[2,3-b][1,4]diazepine-5(2H)-carboxamide]
- TRP Activity (EC1.5): A (EC1.5<1 μM)
- TRP MAX RESP (percent maximum fold activation): A (Fold activation ≧150%)

SMILES: Cl.O=C(Nc1cccc(OC[C@@H](O)CO)n1)N1c2nc(-c3cccc(C(F)(F)F)c3)c(Cl)cc2N2CC[C@H]1C2 [Example 68, (4S)-8-chloro-N-(6-((S)-2,3-dihydroxypropoxy)pyridin-2-yl)-7-(3-(trifluoromethyl)phenyl)-3,4-dihydro-1,4-methanopyrido[2,3-b][1,4]diazepine-5(2H)-carboxamide Hydrochloride]
- TRP Activity (EC1.5): A (EC1.5<1 μM)
- TRP MAX RESP (percent maximum fold activation): A (Fold activation ≧150%)

SMILES: O=C(Nc1cncc(OCCO)n1)N1c2nc(-c3cccc(C(F)(F)F)c3)c(Cl)cc2N2CC[C@H]1C2 [Example 69, (4S)-8-chloro-N-(6-(2-hydroxyethoxy)pyrazin-2-yl)-7-(3-(trifluoromethyl)phenyl)-3,4-dihydro-1,4-methanopyrido[2,3-b][1,4]diazepine-5(2H)-carboxamide]
- TRP Activity (EC1.5): A (EC1.5<1 μM)
- TRP MAX RESP (percent maximum fold activation): A (Fold activation ≧150%)

SMILES: O=C(Nc1ccnc(OCCO)n1)N1c2nc(-c3cccc(C(F)(F)F)c3)c(Cl)cc2N2CC[C@H]1C2 [Example 70, (4S)-8-chloro-N-(2-(2-hydroxyethoxy)pyrimidin-4-yl)-7-(3-(trifluoromethyl)phenyl)-3,4-dihydro-1,4-methanopyrido[2,3-b][1,4]diazepine-5(2H)-carboxamide]
- TRP Activity (EC1.5): A (EC1.5<1 μM)
- TRP MAX RESP (percent maximum fold activation): A (Fold activation ≧150%)

SMILES: O=C(Nc1cccc(OC[C@@H](O)CO)n1)N1c2nc(-c3cccc(C(F)(F)F)c3)c(Cl)cc2N2CC[C@H]1C2 [Example 71, (4S)-8-chloro-N-(6-((S)-2,3-dihydroxypropoxy)pyridin-2-yl)-7-(3-(trifluoromethyl)phenyl)-3,4-dihydro-1,4-methanopyrido[2,3-b][1,4]diazepine-5(2H)-carboxamide]
- TRP Activity (EC1.5): A (EC1.5<1 μM)
- TRP MAX RESP (percent maximum fold activation): A (Fold activation ≧150%)

SMILES: O=C(Nc1ccc(OC[C@@H](O)CO)nc1)N1c2nc(-c3cccc(C(F)(F)F)c3)c(Cl)cc2N2CC[C@H]1C2 [Example 72, (4S)-8-chloro-N-(6-((S)-2,3-dihydroxypropoxy)pyridin-3-yl)-7-(3-(trifluoromethyl)phenyl)-3,4-dihydro-1,4-methanopyrido[2,3-b][1,4]diazepine-5(2H)-carboxamide]
- TRP Activity (EC1.5): A (EC1.5<1 μM)
- TRP MAX RESP (percent maximum fold activation): A (Fold activation ≧150%)

SMILES: O=C(Nc1cncc(OCCCO)n1)N1c2nc(-c3cccc(C(F)(F)F)c3)c(Cl)cc2N2CC[C@H]1C2 [Example 73, (4S)-8-chloro-N-(6-(3-hydroxypropoxy)pyrazin-2-yl)-7-(3-(trifluoromethyl)phenyl)-3,4-dihydro-1,4-methanopyrido[2,3-b][1,4]diazepine-5(2H)-carboxamide]
- TRP Activity (EC1.5): A (EC1.5<1 μM)
- TRP MAX RESP (percent maximum fold activation): A (Fold activation ≧150%)

SMILES: O=C(Nc1cc(OC[C@@H](O)CO)ncn1)N1c2nc(-c3cccc(C(F)(F)F)c3)c(Cl)cc2N2CC[C@H]1C2 [Example 75, (4S)-8-chloro-N-(6-((S)-2,3-dihydroxypropoxy)pyrimidin-4-yl)-7-(3-(trifluoromethyl)phenyl)-3,4-dihydro-1,4-methanopyrido[2,3-b][1,4]diazepine-5(2H)-carboxamide]
- TRP Activity (EC1.5): B (EC1.5 1-25 μM)
- TRP MAX RESP (percent maximum fold activation): A (Fold activation ≧150%)

SMILES: O=C(Nc1ccc(OC[C@H](O)CO)cn1)N1c2nc(-c3cccc(C(F)(F)F)c3)c(Cl)cc2N2CC[C@H]1C2 [Example 76, (4S)-8-chloro-N-(5-((R)-2,3-dihydroxypropoxy)pyridin-2-yl)-7-(3-(trifluoromethyl)phenyl)-3,4-dihydro-1,4-methanopyrido[2,3-b][1,4]diazepine-5(2H)-carboxamide]
- TRP Activity (EC1.5): A (EC1.5<1 μM)
- TRP MAX RESP (percent maximum fold activation): A (Fold activation ≧150%)

SMILES: O=C(Nc1ccc(OC[C@H](O)CO)nc1)N1c2nc(-c3cccc(C(F)(F)F)c3)c(Cl)cc2N2CC[C@H]1C2 [Example 77, (4S)-8-chloro-N-(6-((R)-2,3-dihydroxypropoxy)pyridin-3-yl)-7-(3-(trifluoromethyl)phenyl)-3,4-dihydro-1,4-methanopyrido[2,3-b][1,4]diazepine-5(2H)-carboxamide]
- TRP Activity (EC1.5): A (EC1.5<1 μM)
- TRP MAX RESP (percent maximum fold activation): A (Fold activation ≧150%)

SMILES: O=C(Nc1cncc(OC[C@@H](O)CO)c1)N1c2nc(-c3cccc(C(F)(F)F)c3)c(Cl)cc2N2CC[C@H]1C2 [Example 78, (4S)-8-chloro-N-(5-((S)-2,3-dihydroxypropoxy)pyridin-3-yl)-7-(3-(trifluoromethyl)phenyl)-3,4-dihydro-1,4-methanopyrido[2,3-b][1,4]diazepine-5(2H)-carboxamide]
- TRP Activity (EC1.5): A (EC1.5<1 μM)
- TRP MAX RESP (percent maximum fold activation): A (Fold activation ≧150%)
